One may read the IC50 as the concentration that inhibits the measured activity by half. What is called ED50 is the dose that gives a 50% effect, or the effect in half of the subjects.

Series [1] has as its system Toxoplasma gondii. As to the kind of experiment: Antiparasitic activity against Toxoplasma gondii tachyzoites infected in human TerT cells assessed as decrease in parasite viability by red fluorescent protein based fluorescence method. Type of series: functional. Conditions: read-out: ED50 (the source's name).
For another series, the system named is Trypanosoma cruzi. The series is described as follows: Antiparasitic activity against Trypanosoma cruzi amastigote infected in African green monkey Vero cells decrease in parasite viability measured at day 3 of post infection by red fluorescent protein based fluorescence method. Type of series: functional. Conditions: 72 h, read-out: ED50 (the source's name).

Series [2] concerns the target T1, Farnesyl diphosphate synthase (Trypanosoma cruzi, UniProt Q8WS26).
T1 sequence (Q8WS26 whole entry): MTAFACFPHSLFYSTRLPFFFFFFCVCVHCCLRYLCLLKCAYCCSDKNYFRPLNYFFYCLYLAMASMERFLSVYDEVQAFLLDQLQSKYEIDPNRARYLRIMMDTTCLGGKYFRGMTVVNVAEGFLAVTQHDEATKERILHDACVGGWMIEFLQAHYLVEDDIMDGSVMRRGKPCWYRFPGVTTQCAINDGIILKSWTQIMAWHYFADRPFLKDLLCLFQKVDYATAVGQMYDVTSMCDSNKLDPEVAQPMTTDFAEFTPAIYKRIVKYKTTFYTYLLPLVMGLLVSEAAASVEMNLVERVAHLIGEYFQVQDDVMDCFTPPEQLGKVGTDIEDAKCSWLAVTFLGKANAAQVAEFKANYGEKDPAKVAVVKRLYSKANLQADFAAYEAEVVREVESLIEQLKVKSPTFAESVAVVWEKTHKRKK
As to the kind of experiment: Inhibition of Trypanosoma cruzi FPPS using DMAPP as substrate incubated for 30 mins measured by scintillation counting.

Series [3] addresses T2, Farnesyl diphosphate synthase (Toxoplasma gondii, UniProt Q197X6).
T2 sequence (Q197X6 whole entry): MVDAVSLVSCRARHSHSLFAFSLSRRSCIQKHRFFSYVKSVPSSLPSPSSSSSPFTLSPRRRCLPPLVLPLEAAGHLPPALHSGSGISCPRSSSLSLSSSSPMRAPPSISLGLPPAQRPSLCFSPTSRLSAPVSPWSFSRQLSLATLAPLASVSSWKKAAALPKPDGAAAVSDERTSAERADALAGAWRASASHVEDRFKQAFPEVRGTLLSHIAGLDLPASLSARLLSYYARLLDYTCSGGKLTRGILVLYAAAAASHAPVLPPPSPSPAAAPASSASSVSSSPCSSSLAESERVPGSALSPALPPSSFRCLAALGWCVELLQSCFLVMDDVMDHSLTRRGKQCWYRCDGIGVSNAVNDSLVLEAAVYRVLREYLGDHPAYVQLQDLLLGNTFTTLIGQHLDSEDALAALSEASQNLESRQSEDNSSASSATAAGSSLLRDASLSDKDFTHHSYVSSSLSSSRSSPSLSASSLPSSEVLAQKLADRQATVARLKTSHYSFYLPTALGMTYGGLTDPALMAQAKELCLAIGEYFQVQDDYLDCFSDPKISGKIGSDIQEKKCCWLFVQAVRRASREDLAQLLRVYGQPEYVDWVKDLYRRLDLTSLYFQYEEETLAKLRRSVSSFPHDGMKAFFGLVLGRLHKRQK
The series is described as follows: Inhibition of Toxoplasma gondii FPPS using DMAPP as substrate incubated for 30 mins measured by scintillation counting.

In series [4] the test system is Toxoplasma gondii. The series is described as follows: Antiparasitic activity against Toxoplasma gondii RH tachyzoites infected in ip dosed Webster mouse assessed as increase in survival rate administered daily starting on day 6 post infection for 10 days and measured 30 days post infection (reference value: 9 to 12 days). Format: functional.
The nature of series [5]: Cytotoxicity against African green monkey Vero cells assessed as decrease in cell viability after 3 to 4 days by alamar blue assay. Type of series: cell-based. Conditions: chlorocebus sabaeus, read-out: ED50 (the source's name). For orientation: Resazurin is reduced to fluorescent resorufin, in cell work by metabolically active cells.
Series [6] relates to Vero. The series is described as follows: Cytotoxicity against African green monkey Vero cells assessed as decrease in cell viability at 5 to 10 uM after 3 to 4 days by alamar blue assay. Type of series: cell-based. Conditions: chlorocebus sabaeus.
For series [7], the system named is Vero. The series is described as follows: Cytotoxicity against African green monkey Vero cells assessed as decrease in cell viability at 2.5 uM after 3 to 4 days by alamar blue assay. Type of series: cell-based. Conditions: chlorocebus sabaeus.

Bounds are passed on as bounds.

Consider `CCCCCCCCCCCCNCC(P(=O)(O)O)P(=O)(O)O`, for which the EC50 with Toxoplasma gondii [1] was 6.23 µM.

Take `CCCCCCCC[S+](C)CC(P(=O)(O)O)P(=O)(O)O` (centres undefined): the EC50 in the series on Toxoplasma gondii [1] is 7 µM.

In the case of `CCCCCCCSCC(P(=O)(O)O)P(=O)(O)O`, the EC50 in the series with Trypanosoma cruzi is more than 20 µM; in the series with Toxoplasma gondii [1], 0.97 µM.

Take `CCCCCCCCCCSCC(P(=O)(O)O)P(=O)(O)O`: in the series with Toxoplasma gondii [1], the EC50 was found to be 1.8 µM.

For `CCCCCCNCC(P(=O)(O)O)P(=O)(O)O`, in the series with Toxoplasma gondii [1], the EC50 worked out at 9.4 µM.

For `CCCCCCCNCC(P(=O)(O)O)P(=O)(O)O`, the EC50 in the series on Trypanosoma cruzi was 10 µM; with Toxoplasma gondii [1] it was more than 50 µM.

`CCCCCCCCC(F)(P(=O)(O)O)P(=O)(O)O` returned an IC50 in series [2] of more than 1 µM. Moreover, the EC50 was more than 10 µM with Trypanosoma cruzi and 2.67 µM with Toxoplasma gondii [1].

In the case of `CCCCCCCCCC(F)(P(=O)(O)O)P(=O)(O)O`, the IC50 in series [2] was more than 1 µM. For the same molecule, the EC50 in the series with Trypanosoma cruzi and in the series on Toxoplasma gondii [1] was more than 10 µM in each case.

In the case of `CCCCCCCCNCC(O)(P(=O)(O)O)P(=O)(O)O`, the IC50 in series [2] was more than 10 µM. Besides, the figures for the EC50 with Trypanosoma cruzi and with Toxoplasma gondii [1] were more than 10 µM and 2 µM, respectively.

As for `O=P(O)(O)C(CNC1CCCC1)P(=O)(O)O`, the EC50 in the series on Toxoplasma gondii [1] was more than 20 µM.

Take `CCCCCCCCCCS(=O)(=O)CC(P(=O)(O)O)P(=O)(O)O`: the IC50 in series [3] was determined as 0.27 µM. Further, the ED50 in the series on Toxoplasma gondii [4] is 0.02 mg/kg. In the series on Toxoplasma gondii [1], the EC50 was found to be 0.11 µM.

Take `O=P(O)(O)C(CNC1CCCCCC1)P(=O)(O)O`: the EC50 in the series with Toxoplasma gondii [1] was more than 20 µM.

For the molecule `CCCCCCNCC(F)(P(=O)(O)O)P(=O)(O)O`, the IC50 in series [3] was 0.131 µM; in series [2], 0.915 µM. Moreover, the EC50 with Trypanosoma cruzi and in the series on Toxoplasma gondii [1] was more than 10 µM each time.

Consider `CCCCCCCCCCCCS(=O)(=O)CC(P(=O)(O)O)P(=O)(O)O`, for which the EC50 in the series with Toxoplasma gondii [1] amounted to 0.93 µM.

As for `CCCCCCCCCNCC(F)(P(=O)(O)O)P(=O)(O)O`, the CC50 in series [5] amounted to 15 µM. Moreover, the IC50 in series [3] worked out at 0.051 µM; in series [2], 0.034 µM. For the same molecule, in the series on Toxoplasma gondii [1], the EC50 was found to be 2.24 µM.

As to `CCCCCCCNCC(F)(P(=O)(O)O)P(=O)(O)O`, the figures for the IC50 in series [3] and in series [2] were 0.088 µM and 0.071 µM, respectively. Further, the EC50 with Trypanosoma cruzi and in the series with Toxoplasma gondii [1] was more than 10 µM each time.

For the molecule `CC1CCC(NCC(P(=O)(O)O)P(=O)(O)O)CC1` (centres undefined), in the series on Toxoplasma gondii [1], the EC50 was more than 20 µM.

In the case of `CCCCCCCCNCC(F)(P(=O)(O)O)P(=O)(O)O`, the CC50 in series [5] was found to be 162 µM. For the same molecule, the 50% inhibitory concentration (IC50) stood at 0.079 µM in series [3] and 0.085 µM in series [2]. The EC50 in the series with Trypanosoma cruzi is more than 10 µM; with Toxoplasma gondii [1] it was 4.01 µM.

Turning to `CCCCCCCCCCCS(=O)(=O)CC(P(=O)(O)O)P(=O)(O)O`, the EC50 in the series with Toxoplasma gondii [1] was found to be 0.38 µM.

Regarding `CCCCCCCCCCNCC(F)(P(=O)(O)O)P(=O)(O)O`, the CC50 in series [5] worked out at 20 µM. Further, the values for the IC50 in series [3] and in series [2] were 0.08 µM and 0.136 µM, respectively. Also, the EC50 in the series on Toxoplasma gondii [1] was found to be 2.26 µM.

On to `CCCCCCCCCCCSCC(P(=O)(O)O)P(=O)(O)O`, for which the EC50 in the series with Toxoplasma gondii [1] is 0.54 µM.

On to `CCCNCC(F)(P(=O)(O)O)P(=O)(O)O`, for which the IC50 was 0.245 µM in series [3] and 0.06 µM in series [2]. In addition, in the series on Trypanosoma cruzi, the EC50 is more than 10 µM.

Take `CCCCCNCC(F)(P(=O)(O)O)P(=O)(O)O`: the values for the IC50 in series [3] and in series [2] were 0.299 µM and 0.611 µM, respectively. Also, the EC50 in the series with Trypanosoma cruzi and in the series on Toxoplasma gondii [1] was more than 10 µM throughout.

Consider `CCCCCCCCCCCNC(P(=O)(O)O)P(=O)(O)O`, for which the Activity result with Vero [6] is listed as “Toxic”; in the series on Vero [7], “Non-Toxic”. In addition, the CC50 in series [5] was 10 µM.

In the case of `CCCCCCCCCCC[S+]([O-])CC(P(=O)(O)O)P(=O)(O)O` (centres undefined), in the series with Toxoplasma gondii [1], the EC50 turned out to be 0.53 µM.

Regarding `CCCCNCC(F)(P(=O)(O)O)P(=O)(O)O`, the CC50 in series [5] was more than 200 µM. Moreover, the values for the half-inhibitory concentration (IC50) in series [3] and in series [2] were 0.286 µM and 0.173 µM, respectively. For the same molecule, the EC50 with Trypanosoma cruzi and in the series with Toxoplasma gondii [1] was more than 10 µM each time.

In the case of `O=C(Cn1ccnc1[N+](=O)[O-])NCc1ccccc1` [BENZNIDAZOLE], in the series with Trypanosoma cruzi, the EC50 worked out at 2.58 µM.

The record behind these values is ChEMBL document CHEMBL4385638, “Synthesis and biological evaluation of 1-alkylaminomethyl-1,1-bisphosphonic acids against Trypanosoma cruzi and Toxoplasma gondii” (Bioorg Med Chem, 2019).
